Assay results from patent US20100273806A1, “TETRAHYDROCYCLOPENTA[B]INDOL-3-YL CARBOXYLIC ACID DERIVATIVES USEFUL IN THE TREATMENT OF AUTOIMMUNE AND INFLAMMATORY DISORDERS” (ARENA PHARMACEUTICALS, INC., priority 2007, published 2010).

Legend:
[1] = system: Female C57BL/6 mice; test: MOG-induced EAE in mice; assay type: in vivo, mouse; conditions: 30 mg/kg orally once a day from day 3 until day 21, compared with vehicle; FIG. 5
Procedure: (§1) Animals: Female C57BL/6 mice (8 to 10 weeks of age at start of study) (Jackson Laboratory, Bar Harbor, Me.) were housed four per cage and maintained in a humidity- (40-60%) and temperature- (68-72° F.) controlled facility on a 12 h:12 h light/dark cycle (lights on at 6:30 am) with free access to food (Harlan Teklad, Orange, Calif., Rodent Diet 8604) and water. Mice were allowed one week of habituation to the animal facility before testing.
Induction of EAE: Mice were immunized subcutaneously, 50 μL per hind flank, with a total of 100 μg MOG35-55peptide emulsified 1:1 with Complete Freund's adjuvant containing 4 mg/ml heat-killed Mycobacterium tuberculosis. Mice also received 200 ng pertussis toxin intraperitoneally on the day of immunization and 48 h later.
Clinical scoring: Severity of disease symptoms was scored as follows (in increasing order of severity): 0=normal; 1=limp tail OR hind limb weakness; 2=limp tail AND limb weakness/weakness of 2 or more limbs; 3=severe limb weakness or single limb paralysis; 4=paralysis of 2 or more limbs; 5=death.
Drug treatment: Mice were dosed orally, with vehicle or test compound, once a day from day 3 until day 21. Dosing volume is 5 ml/kg. Test compound was dosed at 30 mg/kg. […] Mice were monitored daily from day 7 onward for disease symptoms. After the last dose on day 21, disease progression was monitored daily for 2 more weeks.

[2] = system: female NOD/Ltj mice; test: Cyclophosphamide induced type I diabetes in NOD mice; assay type: in vivo, mouse; conditions: 30 mg/kg orally once a day from day 0 until day 25, compared with vehicle; FIG. 6
Procedure: Animals: Baseline blood glucose measurements were taken from 9-10 week old female NOD/Ltj mice (Jackson Laboratory, Bar Harbor, Me.) to ensure that they were normoglycemic (blood glucose is 80-120 mg/dL) prior to initiation of the experiment. Blood glucose was measured from tail bleeds using a one touch ultra kit and test strips (LifeScan, Milpitas, Calif.).
Cyclophosphamide induction of Type I diabetes: On day 0 and day 14, normoglycemic NOD mice were injected intraperitoneally with 4 mg cyclophosphamide monohydrate (200 mg/kg) dissolved in 0.9% saline. If mice were diabetic (blood glucose is >250 mg/dL) they were not given a booster dose of cyclophosphamide on day 14.
Drug Treatment: Mice were dosed orally, with vehicle or test compound, once a day from day 0 until day 25. Compounds were suspended in 0.5% methyl cellulose vehicle using a sonicator to ensure uniform suspension. Mice were weighed twice weekly and were dosed according to weight. Dosing volume was 5 mL/kg. Test compound was dosed at 30 mg/kg. Blood glucose was measured twice weekly. After dosing was completed at day 25, the mice continued to be monitored and blood glucose measurements were taken once a week for 3 weeks.

[3] = system: C57BL/6 mice (recipients of Balbc/J skin grafts); test: Mouse skin allograft survival; assay type: in vivo; conditions: 3, 10 and 30 mg/kg orally once a day, compared with vehicle; FIG. 3
Procedure: as §1, with “BALBc/J” for “C57BL/6”, “(6” for “(8”, “7” for “10”, “water. Female C57BL/6 mice (8 to 10 weeks of age at start of study) (Jackson Laboratory, Bar Harbor, Me.) were similarly housed and maintained.” for “water.”, “testing. […]” for “testing.”
Clinical scoring: Skin allografts were inspected and digital images recorded daily until rejection, which was defined as the first day on which more than 80% of the graft is necrotic. […] In an optional related study, on posttransplantation day 5 isolated lymphocytes from peripheral lymph nodes and spleen were counted and characterized for activation markers (e.g., T-cell activation markers) by flow cytometry. Also on day 5, grafts were removed from transplanted recipients, cut into small fragments, digested with collagenase and sedimented over Ficoll-Paque (Pharmacia Biotech, Uppsala, Sweden) to isolate graft-infiltrating lymphocytes, which were counted and characterized for activation markers (e.g., T-cell activation markers) by flow cytometry. […]

[4] = system: Female Lewis rats; test: Collagen-induced arthritis in rats (ankle diameter); assay type: in vivo, rat; conditions: 3, 10 and 30 mg/kg p.o., q.d., day 0 through day 16, compared with vehicle; FIG. 4
Procedure: Female Lewis rats were used in this study. Acclimated animals were anesthetized with isoflurane and given the first collagen injection (day 0). On day 6, they were anesthetized again for the second collagen injection. Collagen was prepared by making a 4 mg/mL solution in 0.01 N acetic acid. Equal volumes of collagen and incomplete Freund's adjuvant were emulsified by hand mixing until a bead of this material held its form when placed in water. Each animal received 300 μL of the mixture each time, spread over 3 subcutaneous sites on the back.
Treatment (p.o., q.d., 5 mL/kg dosing volume) began on day 0 and continued through day 16 with vehicle or compounds given at 24 h intervals. Rats were weighed on days 0, 3, 6 and 9 through 17 and caliper measurements of the ankles taken on days 9 through 17. The 2nd enantiomer of Compound 7 (isolated after resolution of compound 7 by HPLC, with a retention time of 24 min per the conditions reported in Example 1.22) was dosed at 3, 10 and 30 mg/kg.

[5] = biological target: S1P3 receptor (Homo sapiens, UniProt Q99500); conditions: due to its agonism of the S1P3 receptor; cited from earlier work
S1P3 receptor, sequence (Q99500 whole entry): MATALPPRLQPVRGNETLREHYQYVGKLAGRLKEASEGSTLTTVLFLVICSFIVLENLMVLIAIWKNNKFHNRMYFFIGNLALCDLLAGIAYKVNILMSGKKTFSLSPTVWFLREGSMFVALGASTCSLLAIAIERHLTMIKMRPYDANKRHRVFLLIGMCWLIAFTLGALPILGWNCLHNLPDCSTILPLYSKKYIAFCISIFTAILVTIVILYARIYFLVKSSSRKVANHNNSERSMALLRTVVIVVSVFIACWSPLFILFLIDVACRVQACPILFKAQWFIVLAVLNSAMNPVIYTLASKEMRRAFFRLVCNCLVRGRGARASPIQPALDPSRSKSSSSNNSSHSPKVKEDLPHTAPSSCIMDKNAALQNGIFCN

[6] = system: patients with multiple sclerosis; conditions: Phase II, relapsing-remitting multiple sclerosis; cited from earlier work
[7] = system: experimental autoimmune uveoretinitis; conditions: short-term high dose; cited from earlier work
[8] = system: mice; conditions: oral administration to mice; cited from earlier work
[9] = system: C57BL/6 mice; conditions: prophylactic oral administration, 1 mg/kg, three times a week; cited from earlier work

SMILES	severity of disease symptoms in EAE [1]	incidence of diabetes / promotion of normoglycemia [2]	delay of time of rejection of the skin allograft [3]	mean ankle diameter [4]	adverse event in clinical trials [5]	number of lesions detected by MRI and clinical disease activity [6]	ocular infiltrates [7]	VEGF-induced vascular permeability [8]	development of EAMG [9]
N#Cc1cc(OC(F)(F)F)cc(-c2nc(-c3ccc4[nH]c5c(c4c3)CCC5CC(=O)O)no2)c1 (stereo not drawn) [2nd enantiomer of Compound 7, 2-(7-(5-(3-cyano-5-(trifluoromethoxy)phenyl)-1,2,4-oxadiazol-3-yl)-1,2,3,4-tetrahydrocyclopenta[b]indol-3-yl)acetic acid]	exhibited activity in the mouse EAE assay	exhibited activity in the NOD mouse type I diabetes assay	exhibited activity in the mouse skin allograft assay	exhibited activity for reducing mean ankle diameter in the rat	–	–	–	–	–
CCCCCCCCc1ccc(CCC(N)(CO)CO)cc1 [FTY720]	–	–	–	–	transient asymptomatic bradycardia	reduce the number of lesions detected by magnetic resonance imaging (MRI) and clinical disease activity	rapidly reduced ocular infiltrates	potently blocked VEGF-induced vascular permeability	completely prevented the development of experimental autoimmune myasthenia gravis (EAMG)
